Laboratory results published in patent publication US20250243180A1, “TARGETED PROTEIN DEGRADATION” (Monte Rosa Therapeutics AG, priority 2023, published 2025).
Like-named read-outs stand apart in the source and are kept apart here.

Columns and labels:
NEK7 = NEK7 (Homo sapiens (Human), UniProt Q8TDX7+Q96SW2); test: NEK7 NanoBiT degradation assay in Cal51 NEK7 NanoBiT cell line; type: cell-based; settings: Cal51 NEK7 NanoBiT cells, 24 hours; for Dmax: CAL-51
Outline: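 EC50 comes from a 4-parameter fit of control-normalized luminescence. The luminescence reports HiBiT-NEK7 (endogenous knock-in) complemented by stably expressed LgBiT in Cal51 cells after 24 h compound exposure at 37 °C. Final concentrations ran 1 μM to 0.05 nM, with Endurazine substrate present in the medium throughout.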

CRBN-DDB1 = CRBN-DDB1 (Homo sapiens (Human), UniProt Q96SW2); test: Compound binding to CRBN by HTRF assay
Chain of CRBN-DDB1 (Q96SW2 whole entry): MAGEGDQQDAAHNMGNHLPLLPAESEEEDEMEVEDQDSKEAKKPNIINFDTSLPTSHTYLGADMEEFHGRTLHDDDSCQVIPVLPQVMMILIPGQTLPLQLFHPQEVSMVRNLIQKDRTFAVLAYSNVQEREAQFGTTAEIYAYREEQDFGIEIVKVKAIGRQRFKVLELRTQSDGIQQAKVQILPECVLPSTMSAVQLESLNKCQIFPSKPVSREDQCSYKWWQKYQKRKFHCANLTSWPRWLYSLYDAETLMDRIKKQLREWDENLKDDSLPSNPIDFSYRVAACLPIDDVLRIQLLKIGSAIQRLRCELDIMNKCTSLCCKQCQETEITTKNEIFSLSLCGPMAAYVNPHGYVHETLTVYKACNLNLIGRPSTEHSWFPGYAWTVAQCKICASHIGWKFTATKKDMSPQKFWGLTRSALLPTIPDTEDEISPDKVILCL
Chain of CRBN-DDB1 (Q16531 whole entry partner): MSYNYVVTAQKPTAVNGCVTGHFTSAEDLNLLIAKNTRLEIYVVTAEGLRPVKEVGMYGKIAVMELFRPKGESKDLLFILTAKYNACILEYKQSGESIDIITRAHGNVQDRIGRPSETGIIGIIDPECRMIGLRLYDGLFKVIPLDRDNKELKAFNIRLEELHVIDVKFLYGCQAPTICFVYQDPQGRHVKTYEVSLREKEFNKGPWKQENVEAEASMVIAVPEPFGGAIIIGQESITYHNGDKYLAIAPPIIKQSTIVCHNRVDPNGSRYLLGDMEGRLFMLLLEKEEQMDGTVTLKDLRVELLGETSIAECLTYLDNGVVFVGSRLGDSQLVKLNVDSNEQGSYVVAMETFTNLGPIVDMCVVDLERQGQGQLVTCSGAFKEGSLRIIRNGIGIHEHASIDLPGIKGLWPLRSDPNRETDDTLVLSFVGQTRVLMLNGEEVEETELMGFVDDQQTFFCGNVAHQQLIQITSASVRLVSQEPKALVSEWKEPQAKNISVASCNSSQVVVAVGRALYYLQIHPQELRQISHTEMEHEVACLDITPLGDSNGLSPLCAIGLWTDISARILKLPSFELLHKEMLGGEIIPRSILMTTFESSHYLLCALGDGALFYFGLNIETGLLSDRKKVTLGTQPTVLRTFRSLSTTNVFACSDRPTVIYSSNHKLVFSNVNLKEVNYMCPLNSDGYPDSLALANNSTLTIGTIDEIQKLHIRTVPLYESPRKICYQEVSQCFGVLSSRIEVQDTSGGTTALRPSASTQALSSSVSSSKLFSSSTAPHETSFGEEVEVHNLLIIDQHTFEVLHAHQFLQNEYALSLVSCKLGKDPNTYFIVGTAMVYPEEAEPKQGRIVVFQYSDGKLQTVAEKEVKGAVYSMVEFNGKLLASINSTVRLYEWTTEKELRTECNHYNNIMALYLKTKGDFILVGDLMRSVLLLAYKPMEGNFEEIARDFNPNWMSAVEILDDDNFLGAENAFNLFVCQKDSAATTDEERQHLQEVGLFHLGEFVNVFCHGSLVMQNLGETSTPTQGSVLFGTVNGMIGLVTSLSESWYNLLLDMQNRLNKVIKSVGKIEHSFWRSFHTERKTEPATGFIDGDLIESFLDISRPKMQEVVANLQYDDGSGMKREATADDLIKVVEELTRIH
Outline: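 Ki calculated via Cheng-Prusoff from geometric-mean EC50 values, after normalizing the HTRF ratio to lenalidomide (active) and DMSO (neutral) controls. Compounds (11 points, 1:3 steps) incubated 30 min at ambient temperature with CRBN-DDB1 2.5 nM, anti-His Tb cryptate and Cy5-thalidomide tracer 100 nM.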

[1] = NEK7 degradation, read-out: NanoBiT Dmax
[2] = NEK7 degradation, read-out: NanoBiT DC50

Chain of NEK7 (Q8TDX7 whole entry): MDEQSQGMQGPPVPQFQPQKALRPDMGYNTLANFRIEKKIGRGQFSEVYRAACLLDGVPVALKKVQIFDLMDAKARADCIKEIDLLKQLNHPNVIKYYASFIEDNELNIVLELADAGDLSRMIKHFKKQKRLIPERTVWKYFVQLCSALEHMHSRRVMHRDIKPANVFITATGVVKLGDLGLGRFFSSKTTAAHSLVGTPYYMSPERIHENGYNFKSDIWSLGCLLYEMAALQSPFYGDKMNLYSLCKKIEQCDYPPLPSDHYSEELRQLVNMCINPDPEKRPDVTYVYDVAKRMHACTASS
Chain of NEK7 (Q96SW2 whole entry): as the sequence (Q96SW2 whole entry) above
Chain of NEK7 (Q16531 2-1140 partner): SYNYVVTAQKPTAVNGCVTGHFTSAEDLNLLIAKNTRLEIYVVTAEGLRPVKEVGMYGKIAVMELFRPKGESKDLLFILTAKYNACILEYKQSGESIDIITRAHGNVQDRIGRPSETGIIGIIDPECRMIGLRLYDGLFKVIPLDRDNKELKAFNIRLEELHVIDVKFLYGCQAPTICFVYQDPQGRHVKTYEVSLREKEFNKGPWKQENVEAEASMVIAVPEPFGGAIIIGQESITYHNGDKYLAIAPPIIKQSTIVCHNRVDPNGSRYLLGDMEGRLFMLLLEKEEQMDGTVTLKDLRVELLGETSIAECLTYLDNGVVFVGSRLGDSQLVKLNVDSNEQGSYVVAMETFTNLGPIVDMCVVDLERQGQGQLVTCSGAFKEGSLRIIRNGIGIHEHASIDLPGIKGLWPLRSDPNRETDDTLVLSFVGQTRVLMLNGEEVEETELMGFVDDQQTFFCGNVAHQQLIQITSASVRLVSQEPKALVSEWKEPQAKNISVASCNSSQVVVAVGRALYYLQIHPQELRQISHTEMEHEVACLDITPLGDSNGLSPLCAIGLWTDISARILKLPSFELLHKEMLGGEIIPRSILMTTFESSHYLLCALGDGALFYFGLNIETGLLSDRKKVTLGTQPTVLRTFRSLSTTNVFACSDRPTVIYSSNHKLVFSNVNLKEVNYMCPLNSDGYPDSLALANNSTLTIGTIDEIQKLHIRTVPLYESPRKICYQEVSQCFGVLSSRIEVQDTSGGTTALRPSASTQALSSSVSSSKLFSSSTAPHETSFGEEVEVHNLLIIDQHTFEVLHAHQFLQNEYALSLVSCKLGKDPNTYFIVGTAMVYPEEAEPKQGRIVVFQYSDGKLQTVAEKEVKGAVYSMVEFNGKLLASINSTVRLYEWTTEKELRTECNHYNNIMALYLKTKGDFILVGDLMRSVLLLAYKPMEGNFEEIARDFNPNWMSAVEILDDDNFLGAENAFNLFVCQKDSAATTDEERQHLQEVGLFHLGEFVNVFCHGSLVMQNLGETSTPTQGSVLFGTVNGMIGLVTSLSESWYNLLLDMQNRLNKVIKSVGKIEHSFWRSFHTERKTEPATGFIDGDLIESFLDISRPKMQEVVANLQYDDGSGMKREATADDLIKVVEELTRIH

Dmax (NEK7; read-out: NEK7 NanoBiT Dmax)	Dmax (NEK7; [1])	DC50 (NEK7; read-out: NEK7 NanoBiT DC50)	DC50 (NEK7; [2])	EC50 (CRBN-DDB1)	EC50 (CRBN-DDB1; HTRF class, Cereblon binding)	SMILES
92%	> 75%	0.011 µM	≤ 0.1 µM	0.19 µM	0.1 to 1 µM	Cc1cc(C(C)(C)C(=O)NCc2cc(Cl)c(C3CCC(=O)NC3=O)c(Cl)c2)cc(=O)n1C (stereo not drawn) [Compound 53]
97%	> 75%	0.001 µM	≤ 0.1 µM	0.06 µM	≤ 0.1 µM	CC(C)(C(=O)NCc1cc(Cl)c(C2CCC(=O)NC2=O)c(Cl)c1)c1cccc(NS(C)(=O)=O)c1 (stereo not drawn) [Compound 54]
97%	> 75%	0.001 µM	≤ 0.1 µM	0.1 µM	0.1 to 1 µM	CC(C)(C(=O)NCc1cc(Cl)c(C2CCC(=O)NC2=O)c(Cl)c1)c1ccn2ccnc2c1 (stereo not drawn) [Compound 55]
67%	50 to 75%	0.244 µM	0.1 to 1 µM	0.47 µM	0.1 to 1 µM	CC(C)(C(=O)NCc1ccc(C2CCC(=O)NC2=O)c(Cl)c1)c1ccc(S(N)(=O)=O)cc1 (stereo not drawn) [Compound 56]
94%	> 75%	0.003 µM	≤ 0.1 µM	0.13 µM	0.1 to 1 µM	CC(C)(C(=O)NCc1cc(Cl)c(C2CCC(=O)NC2=O)c(Cl)c1)c1ccc(C(N)=O)c(F)c1 (stereo not drawn) [Compound 57]
92%	> 75%	0.006 µM	≤ 0.1 µM	0.13 µM	0.1 to 1 µM	CN(C)S(=O)(=O)c1ccc(C(C)(C)C(=O)NCc2cc(Cl)c(C3CCC(=O)NC3=O)c(Cl)c2)cc1 (stereo not drawn) [Compound 58]
87%	> 75%	0.028 µM	≤ 0.1 µM	0.14 µM	0.1 to 1 µM	CC(C)(C(=O)NCc1cc(Cl)c(C2CCC(=O)NC2=O)c(Cl)c1)c1cc(F)[nH]c(=O)c1 (stereo not drawn) [Compound 59]
96%	> 75%	0.002 µM	≤ 0.1 µM	0.06 µM	≤ 0.1 µM	CC(C)(C(=O)NCc1cc(Cl)c(C2CCC(=O)NC2=O)c(Cl)c1)c1cccc(S(N)(=O)=O)c1 (stereo not drawn) [Compound 60]
97%	> 75%	0.002 µM	≤ 0.1 µM	0.06 µM	≤ 0.1 µM	CNS(=O)(=O)c1ccc(C(C)(C)C(=O)NCc2cc(Cl)c(C3CCC(=O)NC3=O)c(Cl)c2)cc1 (stereo not drawn) [Compound 61]
96%	> 75%	0.002 µM	≤ 0.1 µM	0.05 µM	≤ 0.1 µM	CC(C)(C(=O)NCc1cc(Cl)c(C2CCC(=O)NC2=O)c(Cl)c1)c1cccc(S(C)(=O)=O)c1 (stereo not drawn) [Compound 62]
62%	50 to 75%	0.091 µM	≤ 0.1 µM	0.14 µM	0.1 to 1 µM	CC(C)(C(=O)NCc1cc(Cl)c(C2CCC(=O)NC2=O)c(Cl)c1)c1ccnc2ccccc12 (stereo not drawn) [Compound 63]
86%	> 75%	0.043 µM	≤ 0.1 µM	0.49 µM	0.1 to 1 µM	CC(C)(C(=O)NCc1ccc(C2CCC(=O)NC2=O)c(Br)c1)c1ccc(F)cc1 (stereo not drawn) [Compound 64]
98%	> 75%	0.001 µM	≤ 0.1 µM	0.14 µM	0.1 to 1 µM	CC(C)(C(=O)NCc1cc(Cl)c(C2CCC(=O)NC2=O)c(Cl)c1)c1cccc(C(N)=O)c1 (stereo not drawn) [Compound 65]
96%	> 75%	0.003 µM	≤ 0.1 µM	0.09 µM	≤ 0.1 µM	CC(C)(C(=O)NCc1cc(Cl)c(C2CCC(=O)NC2=O)c(Cl)c1)c1ccc(S(C)(=O)=O)cc1 (stereo not drawn) [Compound 66]
74%	50 to 75%	0.095 µM	≤ 0.1 µM	0.22 µM	0.1 to 1 µM	Cn1cc(C(C)(C)C(=O)NCc2cc(Cl)c(C3CCC(=O)NC3=O)c(Cl)c2)ccc1=O (stereo not drawn) [Compound 67]
97%	> 75%	0.001 µM	≤ 0.1 µM	0.09 µM	≤ 0.1 µM	CC(C)(C(=O)NCc1cc(Cl)c(C2CCC(=O)NC2=O)c(Cl)c1)c1c(F)cncc1F (stereo not drawn) [Compound 68]
97%	> 75%	0.001 µM	≤ 0.1 µM	0.06 µM	≤ 0.1 µM	CC(C)(C(=O)NCc1cc(Cl)c(C2CCC(=O)NC2=O)c(Cl)c1)c1ccc2[nH]cnc2c1 (stereo not drawn) [Compound 69]
97%	> 75%	0.0005 µM	≤ 0.1 µM	0.06 µM	≤ 0.1 µM	CC(C)(C(=O)NCc1cc(Cl)c(C2CCC(=O)NC2=O)c(Cl)c1)c1ccc2[nH]ncc2c1 (stereo not drawn) [Compound 70]

Dmax (NEK7; read-out: NEK7 NanoBiT Dmax)	Dmax (NEK7; [1])	DC50 (NEK7; read-out: NEK7 NanoBiT DC50)	DC50 (NEK7; [2])	EC50 (CRBN-DDB1)	EC50 (CRBN-DDB1; HTRF class, Cereblon binding)	SMILES
90%	> 75%	0.009 µM	≤ 0.1 µM	0.14 µM	0.1 to 1 µM	CN(C)c1ccc(C(C)(C)C(=O)NCc2cc(Cl)c(C3CCC(=O)NC3=O)c(Cl)c2)cc1 (stereo not drawn) [Compound 71]
90%	> 75%	0.011 µM	≤ 0.1 µM	0.47 µM	0.1 to 1 µM	Cn1c(=O)[nH]c2cc(C(C)(C)C(=O)NCc3cc(Cl)c(C4CCC(=O)NC4=O)c(Cl)c3)ccc21 (stereo not drawn) [Compound 72]
93%	> 75%	0.004 µM	≤ 0.1 µM	0.17 µM	0.1 to 1 µM	CC(C)(C(=O)NCc1cc(Cl)c(C2CCC(=O)NC2=O)c(Cl)c1)c1cc(F)nc(F)c1 (stereo not drawn) [Compound 73]
97%	> 75%	0.001 µM	≤ 0.1 µM	0.03 µM	≤ 0.1 µM	CC(C)(C(=O)NCc1cc(Cl)c(C2CCC(=O)NC2=O)c(Cl)c1)c1ccc2ncsc2c1 (stereo not drawn) [Compound 74]
92%	> 75%	0.014 µM	≤ 0.1 µM	0.3 µM	0.1 to 1 µM	Cn1ccc(C(C)(C)C(=O)NCc2cc(Cl)c(C3CCC(=O)NC3=O)c(Cl)c2)cc1=O (stereo not drawn) [Compound 75]
95%	> 75%	0.003 µM	≤ 0.1 µM	0.07 µM	≤ 0.1 µM	CC(C)(C(=O)NCc1cc(Cl)c(C2CCC(=O)NC2=O)c(Cl)c1)c1ccc2[nH]c(=O)oc2c1 (stereo not drawn) [Compound 77]
97%	> 75%	0.0004 µM	≤ 0.1 µM	0.06 µM	≤ 0.1 µM	Cn1ncc2ccc(C(C)(C)C(=O)NCc3cc(Cl)c(C4CCC(=O)NC4=O)c(Cl)c3)cc21 (stereo not drawn) [Compound 78]
83%	> 75%	0.092 µM	≤ 0.1 µM	0.25 µM	0.1 to 1 µM	CC(C)(C(=O)NCc1cc(Cl)c(C2CCC(=O)NC2=O)c(Cl)c1)c1ccc(=O)[nH]c1 (stereo not drawn) [Compound 79]
97%	> 75%	0.001 µM	≤ 0.1 µM	0.03 µM	≤ 0.1 µM	CC(C)(C(=O)NCc1cc(Cl)c(C2CCC(=O)NC2=O)c(Cl)c1)c1ccc(O)c(F)c1 (stereo not drawn) [Compound 80]
98%	> 75%	0.0004 µM	≤ 0.1 µM	0.07 µM	≤ 0.1 µM	CC(C)(C(=O)NCc1cc(Cl)c(C2CCC(=O)NC2=O)c(Cl)c1)c1ccc2nonc2c1 (stereo not drawn) [Compound 81]
96%	> 75%	0.001 µM	≤ 0.1 µM	0.09 µM	≤ 0.1 µM	CC(C)(C(=O)NCc1cc(Cl)c(C2CCC(=O)NC2=O)c(Cl)c1)c1ccn2nccc2c1 (stereo not drawn) [Compound 82]
94%	> 75%	0.007 µM	≤ 0.1 µM	0.14 µM	0.1 to 1 µM	CC(C)(C(=O)NCc1cc(Cl)c(C2CCC(=O)NC2=O)c(Cl)c1)c1ccc(C(N)=O)cc1 (stereo not drawn) [Compound 83]
93%	> 75%	0.022 µM	≤ 0.1 µM	0.18 µM	0.1 to 1 µM	CC(C)(C(=O)NCc1cc(Cl)c(C2CCC(=O)NC2=O)c(Cl)c1)c1cc[nH]c(=O)c1 (stereo not drawn) [Compound 84]
81%	> 75%	0.011 µM	≤ 0.1 µM	0.04 µM	≤ 0.1 µM	CC(C)(C(=O)NCc1cc(Cl)c(C2CCC(=O)NC2=O)c(Cl)c1)c1cncc(F)c1 (stereo not drawn) [Compound 85]
85%	> 75%	0.021 µM	≤ 0.1 µM	0.16 µM	0.1 to 1 µM	Cc1cc(C(C)(C)C(=O)NCc2cc(Cl)c(C3CCC(=O)NC3=O)c(Cl)c2)cc(C)n1 (stereo not drawn) [Compound 86]
97%	> 75%	0.0001 µM	≤ 0.1 µM	0.03 µM	≤ 0.1 µM	CC(C)(C(=O)NCc1cc(Cl)c(C2CCC(=O)NC2=O)c(Cl)c1)c1ccc2occc2c1 (stereo not drawn) [Compound 87]
93%	> 75%	0.004 µM	≤ 0.1 µM	0.11 µM	0.1 to 1 µM	CC(C)(C(=O)NCc1cc(Cl)c(C2CCC(=O)NC2=O)c(Cl)c1)c1ccncc1F (stereo not drawn) [Compound 88]
